Test results: patent US20130261178A1, “PHENOXYPROPANOL DERIVATIVES AND THEIR USE IN TREATING CARDIAC AND CARDIOVASCULAR DISEASES” (priority 2010, published 2013)

Key:
[1] = target: T1, beta1-adrenoceptor (Homo sapiens, UniProt P08588); assay: 3H-CGP12177 whole-cell binding, CHO cells expressing human beta1-adrenoceptor; parameters: expressed in transfected cells; host or cells: CHO cells; details: 3H-CGP 12177 whole cell binding, mean ± s.e.mean; for Kd: log KD, read-out: Beta 1 Log KD (converted)
Description: (§1) The selectivity of a ligand is given by the ratio of beta-1 to beta-2 KD.
Target sequence in this assay (P08588 whole entry): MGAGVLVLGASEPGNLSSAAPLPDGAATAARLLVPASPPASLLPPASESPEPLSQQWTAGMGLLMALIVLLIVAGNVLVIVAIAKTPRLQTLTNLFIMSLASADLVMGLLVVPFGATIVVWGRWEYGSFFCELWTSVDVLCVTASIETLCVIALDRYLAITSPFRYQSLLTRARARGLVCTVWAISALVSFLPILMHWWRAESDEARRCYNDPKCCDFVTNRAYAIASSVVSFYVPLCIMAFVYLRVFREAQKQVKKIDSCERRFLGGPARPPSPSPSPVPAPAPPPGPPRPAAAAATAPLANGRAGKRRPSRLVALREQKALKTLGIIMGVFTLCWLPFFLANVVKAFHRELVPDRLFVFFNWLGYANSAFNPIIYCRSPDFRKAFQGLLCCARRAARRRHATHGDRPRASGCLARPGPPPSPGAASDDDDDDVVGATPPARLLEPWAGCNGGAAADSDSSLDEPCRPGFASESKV

[2] = tested on: conscious, freely-moving rats; assay: regional haemodynamics in conscious, freely-moving rats (responses to salbutamol and isoprenaline); type: in vivo, rat; details: atropine-treated rats
Description: Preliminary assessment of the action of one of the compounds of the invention was undertaken using an in vivo model for monitoring regional haemodynamics in conscious, freely-moving rats (Gardiner & Bennett, Am J Physiol. 1988 October; 255(4 Pt 2):H813-24). This model has the distinct advantage of enabling measurement of regional blood flow in addition to blood pressure in the fully conscious state.

[3] = target: T2, human beta3-adrenoceptor (Homo sapiens, UniProt P13945); assay: 3H-CGP12177 whole-cell binding, CHO cells expressing human beta3-adrenoceptor; details: 3H-CGP 12177 whole cell binding, log KD, mean ± s.e.mean, read-out: Beta 3 Log KD (converted)
T2 construct: expressed in transfected cells; host or cells: CHO cells

[4] = target: T3, human beta2-adrenoceptor (Homo sapiens, UniProt P07550); assay: 3H-CGP12177 whole-cell binding, CHO cells expressing human beta2-adrenoceptor; details: 3H-CGP 12177 whole cell binding, mean ± s.e.mean; for Kd: log KD, read-out: Beta 2 Log KD (converted)
T3 construct: expressed in transfected cells; host or cells: CHO cells
Description: as §1

[5] = target: T1, beta1-adrenoceptor; details: background statement; cited from earlier work
Target sequence in this assay (P08588 whole entry, species assumed): as the sequence (P08588 whole entry) above

T3 sequence (P07550 whole entry): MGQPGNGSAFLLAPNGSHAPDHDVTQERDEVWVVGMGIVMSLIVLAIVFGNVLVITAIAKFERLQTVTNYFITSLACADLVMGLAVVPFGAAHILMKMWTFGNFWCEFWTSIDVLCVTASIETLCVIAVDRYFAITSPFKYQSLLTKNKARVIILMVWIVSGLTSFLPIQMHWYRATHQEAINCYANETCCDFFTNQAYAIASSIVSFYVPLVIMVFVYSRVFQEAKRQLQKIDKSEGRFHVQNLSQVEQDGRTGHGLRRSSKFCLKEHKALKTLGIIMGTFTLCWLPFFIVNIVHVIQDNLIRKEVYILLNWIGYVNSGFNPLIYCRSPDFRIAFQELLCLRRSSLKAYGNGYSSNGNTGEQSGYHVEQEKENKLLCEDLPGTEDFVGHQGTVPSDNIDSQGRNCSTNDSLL
T2 sequence (P13945 whole entry): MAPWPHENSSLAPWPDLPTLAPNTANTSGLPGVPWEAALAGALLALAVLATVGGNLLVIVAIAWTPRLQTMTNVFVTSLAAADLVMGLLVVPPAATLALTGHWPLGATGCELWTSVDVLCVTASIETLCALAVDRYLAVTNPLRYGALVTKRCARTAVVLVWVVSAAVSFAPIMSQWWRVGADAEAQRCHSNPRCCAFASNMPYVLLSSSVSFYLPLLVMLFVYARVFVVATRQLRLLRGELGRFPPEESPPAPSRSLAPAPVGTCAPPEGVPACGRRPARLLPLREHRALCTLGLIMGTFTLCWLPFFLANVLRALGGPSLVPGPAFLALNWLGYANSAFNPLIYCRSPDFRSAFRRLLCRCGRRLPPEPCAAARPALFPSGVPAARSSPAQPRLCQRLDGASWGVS

| Structure (SMILES) | Kd [3] [µM] | Kd [4] [µM] | Beta 1 Log KD [1] | melting point [°C] | Beta 2 Log KD [4] | other results |
| --- | --- | --- | --- | --- | --- | --- |
| O=C(NCCNCC(O)COc1ccc(OCCOCC2CC2)cc1)Nc1ccc(O)cc1 (stereo not shown) [46a] | 24.5 | > 100 | – | – | – | Kd [1]: 0.0302 µM; beta1-adrenoceptor selectivity in a conscious rat cardiovascular model ([2]; 10 mg/kg i.v.): highly beta1-adrenoceptor selective; reflex heart rate response to salbutamol ([2]; n=4, after 46a 10 mg/kg i.v., before +55±14): +7±4 beats/min; isoprenaline-induced tachycardia ([2]; n=4, after 46a 10 mg/kg i.v., before +74±12): +11±4 beats/min; increase in hindquarters vascular conductance (salbutamol) ([2]; n=4, after 46a 10 mg/kg i.v., before +106±20): +98±15%; increase in hindquarters vascular conductance (isoprenaline) ([2]; n=4, after 46a 10 mg/kg i.v., before +126±20): +129±19%; hypotension (salbutamol) ([2]; n=4, after 46a 10 mg/kg i.v., before −11±1): −11±3 mmHg; hypotension (isoprenaline) ([2]; n=4, after 46a 10 mg/kg i.v., before −19±3): −18±2 mmHg |
| CCOCCOc1ccc(OC[C@@H](O)CNCCc2ccc(OC)c(OC)c2)cc1 [D-140S] | – | – | – | – | – | β1-selectivity [5]: 4.400 fold |
| OC(CNCCOc1ccccc1)COc1ccc(OCCOC2CCCC2)cc1 (stereo not shown) [compound 48, 1-(2-Phenoxyethylamino)-3-(4-(2-(cyclopentyloxy)ethoxy)phenoxy)propan-2-ol] | 4.47 | 0.912 | – | 155 to 157 | – | Kd [1]: 0.0347 µM |
| O=C(NCCNCC(O)COc1ccc(OCCOCCc2ccc(F)cc2)cc1)Nc1ccc(O)cc1 (stereo not shown) [46b] | 1.12 | 1.02 | −8.50 ± 0.07 | 113 to 115 | – | – |

The next lines start with results.

| Kd [3] [µM] | Kd [4] [µM] | Beta 1 Log KD [1] | melting point [°C] | Beta 2 Log KD [4] | Structure (SMILES) | other results |
| --- | --- | --- | --- | --- | --- | --- |
| 17.4 | – | −7.76 ± 0.03 | 103 to 110 | −6.05 ± 0.03 | COc1cccc(NC(=O)NCCNCC(O)COc2ccc(OCCOC3CCCC3)cc2)c1 (stereo not shown) [47f] | – |
| 13.8 | – | −7.02 ± 0.04 | 78 to 83 | −5.93 ± 0.02 | COc1ccccc1NC(=O)NCCNCC(O)COc1ccc(OCCOC2CCCC2)cc1 (stereo not shown) [47e] | – |
| 9.33 | – | −7.77 ± 0.04 | 148 to 150 | −5.86 ± 0.04 | O=C(NCCNCC(O)COc1ccc(OCCOC2CCCC2)cc1)Nc1ccc(Br)cc1 (stereo not shown) [47p] | – |
| 11.7 | – | −7.70 ± 0.04 | 134 to 136 | −5.76 ± 0.04 | O=C(NCCNCC(O)COc1ccc(OCCOC2CCCC2)cc1)Nc1ccc(C(F)(F)F)cc1 (stereo not shown) [47s] | – |
| 18.6 | – | −8.17 ± 0.03 | 108 to 110 | −6.54 ± 0.02 | O=C(NCCNCC(O)COc1ccc(OCCOC2CCCC2)cc1)Nc1cccc(F)c1 (stereo not shown) [47i] | – |
| 24 | – | −6.94 ± 0.01 | 128 to 130 | −5.84 ± 0.02 | O=C(NCCNCC(O)COc1ccc(OCCOC2CCCC2)cc1)Nc1ccccc1C(F)(F)F (stereo not shown) [47q] | – |
| 24 | 3.02 | – | 109 to 115 | – | O=C(NCCNCC(O)COc1ccc(OCCOC2CCCC2)cc1)Nc1ccccc1 (stereo not shown) [47a] | Kd [1]: 0.0126 µM |
| 13.5 | – | −7.95 ± 0.05 | 133 to 140 | −5.91 ± 0.86 | O=C(NCCNCC(O)COc1ccc(OCCOC2CCCC2)cc1)Nc1ccc(Cl)cc1 (stereo not shown) [47m] | – |
| 24.5 | – | −7.70 ± 0.04 | 130 to 133 | −5.92 ± 0.09 | O=C(NCCNCC(O)COc1ccc(OCCOC2CCCC2)cc1)Nc1ccc(F)cc1 (stereo not shown) [47j] | – |
